In PMC12155840 (Molecules, 2025):

Legend:
[1] = molecular target: T1, human A1 adenosine receptor (hA1R) (Homo sapiens, UniProt P30542); test: cAMP inhibition assay, allosteric mode with adenosine as orthosteric agonist, CHO-K1-hA1R cells; operational allosteric ternary complex model; format: cell-based; set-up: host or cells: CHO-K1; settings: for Allosteric modulation of adenosine-induced cAMP inhibition (shift of concentration-response curve): test compound at 20 µM; for Logαβ (binding and activation cooperativity) / LogτB (operational efficacy as allosteric agonist) / αβ / τB / Kb / Kd: orthosteric agonist adenosine; for αβ / τB: antilogarithm; for Kb: antilogarithm of logKB; for Kd: operational model fit, read-out: logKB (converted)
T1 sequence (P30542 1-326): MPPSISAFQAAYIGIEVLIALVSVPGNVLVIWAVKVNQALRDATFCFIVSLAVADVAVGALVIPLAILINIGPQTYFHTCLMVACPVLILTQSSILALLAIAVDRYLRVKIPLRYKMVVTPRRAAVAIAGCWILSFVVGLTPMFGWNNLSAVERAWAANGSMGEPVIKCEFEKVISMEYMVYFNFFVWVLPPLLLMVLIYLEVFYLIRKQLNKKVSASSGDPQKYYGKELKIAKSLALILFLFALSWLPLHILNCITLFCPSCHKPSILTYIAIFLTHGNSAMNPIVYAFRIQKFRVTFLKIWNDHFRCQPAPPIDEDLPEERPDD

ECV304 human cell line = test system: ECV304 human cell line; set-up: method as in PMID 18704879; settings: ECV304 in vitro BBB model; cited from earlier work
[2] = set-up: method as in PMID 22411722; settings: rats; cited from earlier work
[3] = set-up: method as in PMID 16220575; settings: human, oral 600 mg valerian extract; cited from earlier work
human A1 receptor = molecular target: T2, human A1 receptor (Homo sapiens, UniProt P30542); test: cAMP inhibition assay, allosteric mode with CPA as orthosteric agonist (DiscoverX HitHunter cAMP XS+), CHO-K1 cells overexpressing the human A1 receptor; operational allosteric ternary complex model; format: cell-based; settings: for αβ / τB: antilogarithm; for Kb: antilogarithm of logKB; for Kd: operational model fit, read-out: logKB (converted)
T2 construct: host or cells: CHO-K1
T2 sequence (P30542 1-326): T1 sequence (P30542 1-326)
Method: Experiments with CPA as an agonist: In experiments with CPA as an agonist, inhibition of intracellular cAMP production in response to CPA stimulation of the receptor was determined using a functional assay in CHO-K1 cells overexpressing the human A1 receptor (Eurofins DiscoverX Corporation, Fremont, CA, USA). Cells were seeded in a total volume of 20 μL into white-walled, 384-well microplates and incubated at 37 °C for the appropriate time prior to testing.
Experiments with CPA as an agonist: cAMP production was measured using the DiscoverX HitHunter cAMP XS+ assay (Eurofins DiscoverX Corporation, Fremont, CA, USA). For allosteric modulation studies, cells were pre-incubated with allosteric modulators at various concentrations, followed by induction with the agonist CPA at its EC20 concentration (i.e., the concentration eliciting 20% of the maximal response). Media were aspirated from cells and replaced with 10 μL of HBSS (10 mM HEPES). Sample stocks were diluted to prepare a 4-fold higher (4x) concentration than the final in-well concentration. Next, 5 μL of the 4x compound was added to the cells and incubated at room temperature or 37 °C for 10 min. This was followed by the addition of 5 μL of the 4x EC20 agonist solution and further incubation for 30 min at 37 °C. To stimulate intracellular cAMP production and provide a dynamic range for detecting Gi-mediated inhibition, forskolin at its EC80 was included in all experiments. The final DMSO (vehicle) concentration was 1%. After incubation with compounds, the assay signal was generated by adding 5 uL of and cAMP XS+ Ab reagent followed by 20 μL of the cAMP XS+ ED/CL lysis cocktail and then incubating for 1 h. This was followed by adding 20 μL of the cAMP XS+ EA reagent and incubating for 2 h at room temperature. Chemiluminescent signals were detected using a PerkinElmer EnVision™ instrument. Compound activity was analyzed using the CBIS data analysis suite (ChemInnovation, San Diego, CA, USA). Control dose–response curves were generated using CPA as the agonist. Data were normalized to the maximal response observed with CPA (positive control) and the minimal response observed with vehicle (1% DMSO, negative control).
The operational allosteric ternary complex model (ATCM) accounts for the ability of an allosteric ligand to modify affinity and/or efficacy and even activate a receptor independently. This model describes a simplified case for positive allosteric modulators (PAMs), where the orthosteric ligand is a full agonist.
Explanation of parameters: A = Agonist concentration; B = Allosteric modulator concentration; KB = Dissociation constant for the modulator; αβ = Allosteric coupling constant; τB = Intrinsic activity of the modulator; EC50 = Half-maximal effective concentration of the agonist; n = Hill coefficient; Emax = Maximal system response; Basal = Basal activity (response in the absence of any ligand); Span = Emax − Basal (difference between maximum and basal activity).
The response curve Y is defined as follows: Y=Basal+Span·(Part1)/(Part1+Part2) where Part1=A·KB+αβ·B+τB·B·EC50^n Part2=(EC50^n·(KB+B))^n Span=Emax−Basal

[4] = set-up: method as in PMID 19156843; settings: isolated perfused rat livers; cited from earlier work
[5] = molecular target: T1, human A1 adenosine receptor (hA1R); test: cAMP inhibition assay, direct agonist mode, in CHO-K1-hA1R cells (Cisbio cAMP Gi kit, forskolin co-stimulation); settings: 0.01 to 50 µM
human A1 receptors = test system: human A1 receptors; set-up: method as in PMID 30644086; settings: 1, 10 and 30 µM, human A1 receptors in HEK293T cells; cited from earlier work
rat A1 receptors = test system: rat A1 receptors; set-up: method as in PMID 30644086; settings: 1, 10 and 30 µM, rat A1 receptors in HEK293T cells; cited from earlier work

COc1cc([C@H]2OC[C@H]3[C@@H]2CO[C@@H]3c2ccc(O[C@@H]3O[C@H](CO)[C@@H](O)[C@H](O)[C@H]3O)c(OC)c2)ccc1O[C@@H]1O[C@H](CO)[C@@H](O)[C@H](O)[C@H]1O [Pinoresinol diglucoside, pinoresinol-diglucoside]
Allosteric modulation of adenosine-induced cAMP inhibition (shift of concentration-response curve) [1]: no significant shift

COc1cc([C@H]2OC[C@H]3[C@@H]2CO[C@@H]3c2ccc(O[C@@H]3O[C@H](CO)[C@@H](O)[C@H](O)[C@H]3O)c(OC)c2)ccc1O [Pinoresinol-4-O-glucoside, pinoresinol-4-O-Glucoside]
Allosteric modulation of adenosine-induced cAMP inhibition (shift of concentration-response curve) [1]: no significant shift

CC1=C2[C@H](/C=C(\C)C(=O)O)CC[C@@H](C)[C@H]2CC1 [Valerenic Acid, Valerenic acid]
permeation of the BBB model relative to diazepam (ECV304 human cell line): significantly slower than diazepam
oral bioavailability [2]: 33.7%
half-life [3]: approximately 1.1 h
peak plasma concentration of valerenic acid (molar) [3]: ~ 10 nM
Logαβ (binding and activation cooperativity) (human A1 receptor): 1.36
LogτB (operational efficacy as allosteric agonist) (human A1 receptor): 0.49
αβ (human A1 receptor): 23.38
τB (human A1 receptor): 3.14
Kb (human A1 receptor): 17.4 µM
hepatic metabolism [4]: undergoes extensive hepatic metabolism, primarily through glucuronidation
Intrinsic agonist activity: effect on forskolin-stimulated cAMP levels in the absence of adenosine [5]: no significant reduction in cAMP levels
Logαβ (binding and activation cooperativity) [1]: 0.68
LogτB (operational efficacy as allosteric agonist) [1]: 0.77
αβ [1]: 4.79
τB [1]: 5.98
Kb [1]: 244 µM

Nc1scc(-c2cccc(C(F)(F)F)c2)c1C(=O)c1ccccc1 [VCP 171, reference compound]
effect on binding affinity of orthosteric agonists (human A1 receptors): enhanced the binding affinity of orthosteric agonists
effect on binding affinity of orthosteric agonists (rat A1 receptors): enhanced the binding affinity of orthosteric agonists
Logαβ (binding and activation cooperativity) (human A1 receptor): 1.11
LogτB (operational efficacy as allosteric agonist) (human A1 receptor): 0.3
αβ (human A1 receptor): 12.73
τB (human A1 receptor): 1.99
Kb (human A1 receptor): 10.8 µM
Kd (human A1 receptor): 11 µM
Logαβ (binding and activation cooperativity) [1]: −0.43
LogτB (operational efficacy as allosteric agonist) [1]: 0.42
αβ [1]: 0.37
τB [1]: 2.66
Kb [1]: 9.38 µM
Kd [1]: 9.55 µM

COc1cc(/C=C/C(=O)O)ccc1O [Ferulic acid, trans-ferulic acid]
Allosteric modulation of adenosine-induced cAMP inhibition (shift of concentration-response curve) [1]: no significant shift

COc1cc([C@H]2OC[C@](O)(Cc3ccc(O[C@@H]4O[C@H](CO)[C@@H](O)[C@H](O)[C@H]4O)c(OC)c3)[C@@H]2CO)ccc1O [Olivil-4-O-glucoside, (−)-olivil 4′-O-glucoside]
Allosteric modulation of adenosine-induced cAMP inhibition (shift of concentration-response curve) [1]: no significant shift

COc1ccc(/C=C/C(=O)O)cc1O [Isoferulic acid, trans-isoferulic acid]
Allosteric modulation of adenosine-induced cAMP inhibition (shift of concentration-response curve) [1]: no significant shift

COc1cc([C@H]2OC[C@]3(O)[C@@H](c4ccc(O)c(OC)c4)OC[C@H]23)ccc1O [8-Hydroxypinoresinol, 8-Hydroxy-pinoresinol]
Allosteric modulation of adenosine-induced cAMP inhibition (shift of concentration-response curve) [1]: no significant shift

COc1ccc([C@@H]2CC(=O)c3c(O)cc(O[C@@H]4O[C@H](CO[C@@H]5O[C@@H](C)[C@H](O)[C@@H](O)[C@H]5O)[C@@H](O)[C@H](O)[C@H]4O)cc3O2)cc1O [Hesperidin]
Allosteric modulation of adenosine-induced cAMP inhibition (shift of concentration-response curve) [1]: slight leftward shift in the dose-response curve

COc1cc([C@H]2OC[C@H]3[C@@H]2CO[C@@H]3c2ccc(O)c(OC)c2)ccc1O [Pinoresinol, (+)-pinoresinol]
Logαβ (binding and activation cooperativity) (human A1 receptor): −0.1
LogτB (operational efficacy as allosteric agonist) (human A1 receptor): 0.22
αβ (human A1 receptor): 0.79
τB (human A1 receptor): 1.66
Kb (human A1 receptor): 316 µM
Kd (human A1 receptor): 316 µM
Intrinsic agonist activity: effect on forskolin-stimulated cAMP levels in the absence of adenosine [5]: no significant reduction in cAMP levels
Logαβ (binding and activation cooperativity) [1]: 0.53
αβ [1]: 3.42
τB [1]: 0.93
Kb [1]: 25.8 µM
Kd [1]: 26.3 µM

CC1=C2[C@@H]([C@H](C)CC[C@H]2/C=C(\C)C(=O)O)[C@H](O)C1 [hydroxyvalerenic acid]
permeation of the BBB model relative to diazepam (ECV304 human cell line): significantly slower than diazepam

O=C(O)/C=C/c1ccc(O)cc1 [Coumaric acid, coumaric acid]
Allosteric modulation of adenosine-induced cAMP inhibition (shift of concentration-response curve) [1]: no significant shift

COc1cc(C[C@]2(O)CO[C@@H](c3ccc(O)c(OC)c3)[C@@H]2CO)ccc1O [Olivil, (−)-olivil]
Allosteric modulation of adenosine-induced cAMP inhibition (shift of concentration-response curve) [1]: no significant shift

CC(=O)O[C@@H]1CC(C)=C2[C@H]1[C@H](C)CC[C@H]2/C=C(\C)C(=O)O [acetoxyvalerenic acid]
permeation of the BBB model relative to diazepam (ECV304 human cell line): significantly slower than diazepam

O=C(/C=C/c1ccc(O)c(O)c1)O[C@@H]1C[C@](O)(C(=O)O)C[C@@H](O)[C@H]1O [Chlorogenic acid, chlorogenic acid]
Allosteric modulation of adenosine-induced cAMP inhibition (shift of concentration-response curve) [1]: no significant shift
